Data published in US7723119B2, “Method for determining solubility of a chemical compound” (Sirius Analytical Instruments Ltd., priority 2004, dated 2010).

Assay: solubility determination by Chasing Equilibrium pH-metric titration
Assay type: physicochemical
From the text: In the Dissolution stage, the test solution is titrated with base titrant. In the Seeking Precipitation and Additional Precipitation stages, the test solution is titrated with acid titrant.
After the final data point of the Additional Precipitation stage has been collected, the method moves on to the Chasing Equilibrium stage. Chasing Equilibrium for an acidic sample is based on the following principles:
The first points are collected while adding base titrant to a supersaturated test solution. The addition of titrant is controlled by a computer program. The slope decreases with each aliquot of base that is added. […] Another aliquot of base is added to confirm that the slope is negative. If the slope remains negative, another data point is taken after adding no titrant. […] By successively adding aliquots of base and acid, the slope can be forced to change direction. When the slope has changed direction several (e.g. five) times the Chasing Equilibrium stage of the procedure is deemed to be complete.
The concentration of unionised solute in solution is calculated for each point in FIG. 7, and plotted against slope (pH/min) as shown in FIG. 8. The points are then connected by a line in the same order that they appeared in FIG. 7. The points corresponding to where the line crosses the zero value of the slope (pH/min) axis are determined by interpolation. The concentration equivalent to these zero slope, crossing points is determined. The solubility is then obtainable as the mean concentration calculated from the several zero slope, crossing points.
For each point located on either side of a zero slope crossing, the amount of neutral sample in solution could be calculated in the following steps:
1. […]
4. The concentration of free positive ions (e.g. K^+) is determined from the amount of base titrant (e.g. KOH) plus any positive ions in the test compound if it was a salt: [K^+]=(vbcb+mszs+/wf)/vt • wherein: cb is the concentration of base titrant • ms is the sample weight of test compound • zs+ is the charge of any positive salt counter-ions • wf is the formula weight of the test compound. […]

## O=C(O)Cc1ccccc1Nc1c(Cl)cccc1Cl [diclofenac]
0.15 M KCl solution titrated with acid and base, saline or isotonic, thermodynamic from solid, straight line interpolation of points A and B to zero pH slope, 0.15M KCl solution, sample introduced as sodium salt, read-out: equilibrium solubility (concentration of unionised compound at zero pH slope)
  solubility thermodynamic: ~0.732 µg/mL
Point A, one side of zero-slope crossing, pH=5.64453, pH slope=2.87 E-05
  dissolved neutral test sample: 759 ng/mL
Point B, other side of zero-slope crossing, pH=5.70437, pH slope=-3.5 E-06
  dissolved neutral test sample: 728 ng/mL
